Here are results for three molecules from patent US20240196885A1, “INSECT PEST BAIT COMPOSITION WITH ISO[…] METHOD FOR CONTROLLING INSECT PESTS” (SYNGENTA CROP PROTECTION AG, priority 2021, published 2024).

Common to all, as to format: in vivo
Data set [1] concerns Reticulitermes santonensis. As to the kind of experiment: Termite worker knockdown and mortality after exposure to filter paper bait. Here is the method:
(§1) Bait preparation. isocyloseram was applied dissolved in acetone to the appropriate insect diet such that the desired a.i. loading was delivered in the diet after the acetone had evaporated. • House fly—granulated sugar • Termites—filter paper • Darkling beetle—oat flakes
(§2) In a suitable arena, 10 insects of each species were exposed to 1 g of the solid baits. Baits were presented in such a way as to minimise the contact exposure. Three replicates of each treatment and species were conducted.
(§3) Insect knockdown was assessed one and three hours after exposure, and mortality after 24 and 48 and 168 hours.

In data set [2] the test system is Darkling beetle larvae. As to the kind of experiment: Darkling beetle larval knockdown and mortality after exposure to oat flake bait. Here is the method:
as §1, §2, §3

Data set [3] has as its system Darkling beetle adults. As to the kind of experiment: Darkling beetle adult knockdown and mortality after exposure to oat flake bait. To be noted: for Mean % knockdown or mortality: adults. Here is the method:
as §1, §2, §3

Data set [4] has as its system Musca domestica. The data set can be described thus: Adult house fly knockdown and mortality after exposure to a sugar bait. Here is the method:
as §1, §2, §3

The subject of data set [5] is Atta bisphaerica (leaf cutter ant). The data set can be described thus: Field test for control of leaf cutter ant with pelleted citrus pulp bait. Particulars: for control efficiency after opening the nests in the excavation of the anthills: excavation at 155 DAA, modified Abbott formula; for ceased activity in leaf cutting by ants: ninety days after application. Here is the method:
Bait preparation. Blends of citrus pulp and refined soybean oil (95/5 w/w %) were sprayed with an aqueous isocycloseram suspension concentrate (SC) such as […]™ (Syngenta Agro S.A.), further blended and pelletized. Bait pellets or granules having an isocycloseram a.i. loading of 0.05, 0.1, 0.2 and 0.3%, respectively, were prepared.
The field test for the control of Atta bisphaerica (leaf cutter ant) was conducted with the pelleted isocycloseram citrus pulp bait. The experimental design was completely randomized, with fourteen treatments and 10 replications, following the norms, considering an anthill as repetition. The treatments used were: isocyloseram −0.05% at doses of 6, 10 and 12 g/m^2, isocyloseram […] 0.1% at doses of 6, 10 and 12 g/m^2, isocyloseram −0.2% at doses of 6, 10 and 12 g/m^2, isocyloseram −0.3% at doses of 6, 10 and 12 g/m^2, A commercial standard Mirex-S (sulfluramid) at a dose of 10 g/m^2 and a control (Placebo); commercial product dosages per m^2 of loose earth. The evaluations with 1, 2, 3 and 7 DAA (days after application) included the loading rate parameters (%) (i.e. the % bait applied that is carried into the ant nest), return rate (%) (i.e. the % bait rejected by the colony) and intoxicated ants. As 1, 2, 3, 7, 15, 28, 60, 90, 118 and 155 DAA, the ground removal parameters (%) and leaf cutting and anthill excavation at 155 DAA.
The application of the products was carried out manually, with the aid of a dosing cup, near the scouts and trails of the anthills. The results obtained were submitted to variance analysis, compared by the Scott-Knott test (p≤0.05) and corrected by the modified Abbott formula for control calculation.

Data set [6] has as its system German cockroaches, Blattella germanica. The data set can be described thus: Cockroach peanut butter bait: donor mortality and secondary kill of recipients. To be noted: for Recipient % mortality: recipients exposed to donors of 1% bait, not to the bait. Here is the method:
Isocycloseram was incorporated into the peanut-butter base by mixing 0.5 ml of a 10000 ppm (1%) solution of the compound in acetone into 0.5 g of peanut butter. The mixture was left in a fume cupboard for 24 hours to allow the acetone to evaporate, leaving […] of compound in 0.5 g of peanut butter, equivalent to 10000 ppm.
Five adult male and five non-gravid adult female German cockroaches, Blattella germanica, were marked with a dot of white paint, to identify them, and placed into a plastic arena approximately 20 cm in diameter. Also placed in each arena was a simple harbourage constructed from concertinaed card and a water source. After the cockroaches had acclimatised for 24 hours a 15 ml glass vial containing 0.5 g of the treated peanut butter bait was added.
After 48 hours the glass vial containing the bait was removed, and an assessment of the cockroach mortality was made. Five adult male and five non-gravid adult female German cockroaches, Blattella germanica, were added to the arena, leaving any dead or alive cockroaches with the white paint mark in the arena.
Mortality of both the marked and unmarked cockroaches was made after 24 and 96 hours.

In data set [7] the test system is Agrotis ypsilon (Greasy cutworm). The data set can be described thus: Protection of corn seedlings from Agrotis ypsilon larvae in field arenas (bait, foliar spray, seed treatment). Here is the method:
Trial layout: Arenas of 4 square metres were created in a field with 20 cm high plastic walls to prevent escape of larvae and influx of predators but left to the open air. 3 replicates per trearment were set up. Corn (variety Hightech 2031, conventional non-Bt) was planted at the rate of 30 seeds per arena.
Application method 1: For seed treatment, the seeds were treated with aqueous 40% isocycloseram formulation, such as […]™ (Syngenta Agro S.A.), one day before planting using a standard seed treatment water slurry volume of 50 ml/kg of seed. Four rates of isocycloseram seed treatment were tested 0.3, 0.6, 1.3 and 2.5 mg/seed.
Application method 2: For bait application, dried cobs of maize corn were ground after removal of the seeds to form a coarse granular “corn grit” bait carrier. The corn grit was spread out on a plastic sheet and sprayed with a 40% SC aqueous formulation of isocycloseram mixed with water at the rates of 15, 30 and 60 grams of isocycloseram per 70 kg of corn grit. The baits were then mixed homogeneously and spread by hand in the evening at a rate of 70 kg/ha (7 gr./sqm, or 28 gr./plot) evenly over the soil surface. This was done 4 days after planting, just before emergence of the corn to attract and kill the cutworms at night.
Application method 3: For foliar sprays, a standard hand-held spray-boom with flat-fan nozzles at 600 I/ha was used. The spray was made 1 day after release of the Greasy cutworm larvae at the 2 leaf stage (BBCH 12) of the corn. Three rates were used 30, 60 and 90 grams isocyclseram per hectare
Two check lots were included—both untreated, one with infestation and one without infestation.
Artificial infestation: Laboratory-reared Agrotis ypsilon (Greasy cutworm) larvae at the L5 stage were released into the arenas at a rate of 30 larvae per arena (1 larva per plant) in the morning. This infestation was made Infest 30 L5 larvae into each arena in the morning (1 larva per plant) approx 3 days after seeding just as corn is germinating. Make the application 8-24 hours later.
Assessment: The number of damaged plants per plot was measured at 21 days after the last application (the foliar spray).

For data set [8], the system named is Darkling beetle larvae. The data set can be described thus: Darkling beetle larval knockdown and mortality after exposure to oat flake bait. To be noted: larval stage, 100 ppm, after seven days.
Data set [9] deals with Agrotis ypsilon (Greasy cutworm). The data set can be described thus: Protection of corn seedlings from Agrotis ypsilon larvae in field arenas (bait, foliar spray, seed treatment). This is another data set of the same source.
[10] abbreviates: 0.1% in oat flake bait, 3 hours.
Where [11] appears, read: 0.1% in oat flake bait, 24 hours.
[12] abbreviates: 0.1% in oat flake bait, 48 hours.
The mark [13] stands for this setting: 0.1% in oat flake bait, 168 hours.
[14] abbreviates: 1% in oat flake bait, 168 hours.

One may read the mortality as the percentage killed. A high value points to a strong lethal effect. `CCN1OCC(NC(=O)c2ccc(C3=NOC(c4cc(Cl)c(F)c(Cl)c4)(C(F)(F)F)C3)cc2C)C1=O` (centres unmarked) [isocyloseram, Isocycloseram]: the “Mean % knockdown or mortality” value was determined as 0% in data set [1] (0.10% in filter paper bait, 1 hour); 0% in [1] (0.10% in filter paper bait, 3 hours); 100% in [1] (0.10% in filter paper bait, 24 hours); 100% in data set [1] (0.10% in filter paper bait, 48 hours); 0% in [1] (1% in filter paper bait, 1 hour); 7% in data set [1] (1% in filter paper bait, 3 hours). The “Mean % knockdown or mortality” value in data set [1] (1% in filter paper bait, 24 hours) was found to be 100%; in data set [1] (1% in filter paper bait, 48 hours) it was 100%; in [2] (0.1% in oat flake bait, 1 hour), 0%; in data set [2] (setting [10]), 0%; in [2] (setting [11]), 0%; in data set [2] (setting [12]), 3%. Also, the “Mean % knockdown or mortality” value in data set [2] (setting [13]) was determined as 23%; in data set [2] (1% in oat flake bait, 1 hour), 0%; in [2] (1% in oat flake bait, 3 hours), 23%; in data set [2] (1% in oat flake bait, 24 hours), 80%; in [2] (1% in oat flake bait, 48 hours), 83%; in data set [2] (setting [14]), 100%. Besides, the “Mean % knockdown or mortality” value is 0% in [3] (0.1% in oat flake bait, 1 hour); 0% in data set [3] (setting [10]); 0% in [3] (setting [11]); 3% in data set [3] (setting [12]); 7% in data set [3] (setting [13]); 0% in data set [3] (1% in oat flake bait, 1 hour). For the same molecule, the “Mean % knockdown or mortality” value in data set [3] (1% in oat flake bait, 3 hours) stood at 0%; in data set [3] (1% in oat flake bait, 24 hours), 93%; in [3] (1% in oat flake bait, 48 hours), 97%; in data set [3] (setting [14]), 100%; in [4] (0.10% in sugar bait, 1 hour) it was 0%; in data set [4] (0.10% in sugar bait, 3 hours), 57%. Also, the “Mean % knockdown or mortality” value in [4] (0.10% in sugar bait, 24 hours) worked out at 100%; in [4] (1% in sugar bait, 1 hour), 0%; in data set [4] (1% in sugar bait, 3 hours) it was 97%; in [4] (1% in sugar bait, 24 hours) it was 100%. In addition, the mortality in data set [3] (adult stage, 100 ppm, after seven days) is 100%; in data set [8] it was 100%. Further, the “control efficiency after opening the nests in the excavation of the anthills” value in data set [5] (0.2% bait (10 and 12 g)) is “higher than 84%”; in data set [5] (0.3% bait (6, 10 and 12 g)) it was “higher than 84%”. Further, the “response rate as a function of the time of intoxication” value in [5] (first three days after application of bait) stood at 87.5%; in data set [5] (seven days after bait application), 100%. Moreover, the “ceased activity in leaf cutting by ants” value in data set [5] (0.1% bait (12 g)) turned out to be 100%; in data set [5] (0.2% bait (6, 10 and 12 g)) it was 100%; in [5] (0.3% bait (6, 10 and 12 g)), 100%. The “average (ground) removal” value in data set [5] (twenty-eight days after treatment) is reported as “less than 5%”. This molecule registered a Donor % mortality in data set [6] (1% in peanut butter bait, 48 hours) of 100%. Further, the Recipient % mortality in data set [6] (24 hours post introduction) turned out to be 97%; in data set [6] (96 hours post introduction), 100%. Also, the “% reduction of corn damage 22 d after infestation” value (“% reduction of corn damage 22 d” below) in data set [7] (Corn Grit Bait 0.42 gai/kg bait, equivalent 30 gai/ha) was 94%; in data set [7] (Corn Grit Bait 0.63 gai/kg bait, equivalent 60 gai/ha) it was 94%; in data set [7] (Corn grit Bait 0.21 gai/kg bait, equivalent 15 gai/ha), 87%; in data set [7] (Foliar spray 30 gai/ha), 37%; in [7] (Foliar spray 60 gai/ha), 46%; in [7] (Foliar spray 90 gai/ha), 74%. Besides, the “% reduction of corn damage 22 d” value in data set [7] (Seed treatment 0.3 mg ai/seed, equivalent 18 gai/ha) is 0%; in data set [7] (Seed treatment 0.6 mg ai/seed, equivalent 36 gai/ha), 2%; in [7] (Seed treatment 1.3 mg ai/seed, equivalent 72 gai/ha), 6%; in data set [7] (Seed treatment 2.5 mg ai/seed, equivalent 144 gai/ha), 13%.
In the case of Spinetoram, in [9] (Foliar spray 18 gai/ha), the “% reduction of corn damage 22 d” value turned out to be 28%.
On to `CC1(C)[C@H](C(=O)O[C@H](C#N)c2cccc(Oc3ccccc3)c2)[C@@H]1/C=C(\Cl)C(F)(F)F` [lambdacyhalothrin, Lambdacyhalothrin], for which the “% reduction of corn damage 22 d” value in data set [9] (Foliar spray 22.4 gai/ha) is reported as 81%.
